# Test results taken from patent US20240277698A1, “METHODS OF USING ALDOSTERONE SYNTHASE INHIBITORS” (CINCOR PHARMA, INC., priority 2021, published 2024).
# Key:
# [1] = Single-ascending dose (SAD) study in healthy subjects: plasma and urine pharmacokinetics; details: human, in vivo
# Experimental: A second, generally lower peak was often observed at 3 to 4 hours postdose.
# A second, generally lower peak was often observed at 3 to 4 hours post-dose. […] Over the anticipated therapeutically relevant dose range (through 10 mg), peak and overall exposures (as assessed by Cmax and area under the concentration-time curve [AUC]) increased in a generally dose-proportional manner.
# Single- and Multiple-Dose Plasma Pharmacokinetics of (R)-compound 1. The single- and multiple-dose PK profiles of (R)-compound 1 have been characterized in healthy subjects in the Phase 1 studies. FIG. 7 depicts the mean plasma concentration versus time profiles of (R)-compound 1 after administration of single oral doses of (R)-compound 1 ranging from 1 mg to 360 mg (under low salt conditions) and at steady-state over the range of 0.5 mg to 5 mg (under low and/or normal salt conditions). After oral administration, (R)-compound 1 is rapidly absorbed with peak concentrations observed within 3 hours after dosing (range 0.5 to 4 hours).
# [2] = SAD study Part 1: safety and tolerability (adverse events, laboratory values); format: in vivo; details: single oral dose, highest dose tested
# Experimental: There were no deaths, serious adverse events (SAEs), or dose-limiting events and the maximum tolerated dose observed was at the highest dose tested (360 mg). Overall, the most frequently reported AEs following administration of a single dose of (R)-compound 1 were headache, nasopharyngitis, diarrhea, asthenia, dizziness, and nausea.
# Urine sodium and the sodium to potassium ratio both increased, with the sodium loss in urine greater than the potassium retention. No change in urine creatinine was apparent.
# AEs were reported for few subjects and the incidence was not dose dependent (Table 14). No severe AEs, SAEs, withdrawals due to AEs, or deaths were noted. Overall, the most frequently reported AEs across dose levels were headache, nasopharyngitis, diarrhea, and nausea; however, the only events reported by >1 subject at any dose level were toothache (2 subjects [12.5%] with placebo), nasopharyngitis (2 subjects [12.5%] with placebo), and headache (2 subjects [33.3%] with 180 mg). The majority of AEs were considered not related to study drug. Two events of moderate gastroenteritis were reported (with 180 mg and placebo) and all other AEs were mild in intensity.
# Isolated markedly abnormal safety laboratory values were reported but no dose-dependent pattern was apparent. No AEs related to markedly abnormal safety laboratory values were reported. […]
# [3] = Renal impairment study, single 10 mg dose: safety; format: in vivo
# Source text: One subject with end stage disease experienced an unrelated SAE of metabolic encephalopathy and a moderate unrelated adverse event (AE) of tremor. One control subject experienced a mild AE of diarrhea, which was considered to be related to study drug by the Investigator. […] It is not necessary to dose adjust (R)-compound 1 for patients with renal impairment.
# Overall, there were no deaths, 1 (3.0%) subject experienced an SAE, and no subjects discontinued due to a TEAE. Overall, 2 (6.1%) subjects experienced a total of 3 TEAEs: 1 (10.0%) subject in the control group experienced a TEAE of mild diarrhea following administration of (R)-compound 1 that was considered related to the study drug; no subjects experienced a TEAE in the (R)-moderate to severe renal impairment group; and 1 (8.3%) subject in the kidney failure group experienced 2 TEAEs of moderate tremor and severe metabolic encephalopathy (recorded as an SAE) following administration of (R)-compound 1 that were considered not related to the study drug. The SAE was thought to be secondary to the concomitant medications. As such, there was no apparent increase in incidence or severity of AEs with decreased renal function. There were no AEs, trends, or clinically meaningful changes in laboratory parameters. There were no AEs or clinically significant changes observed in vital signs, physical examinations, or 12-lead ECGs.
smiles,measurement,setting,value
"CCC(=O)N[C@@H]1CCCc2c(-c3ccc4c(c3)CCC(=O)N4C)cncc21 [(R)-Compound 1, (R)—N-(4-(1-methyl-2-oxo-1,2,3,4-tetrahydroquinolin-6-yl)-5,6,7,8-tetrahydroisoquinolin-8-yl)propionamide]",CL renal,[1],4.63 to 7.38 mL/min
same,"Renal clearance as share of total plasma clearance, average",[1],15.5%
same,"Renal clearance as share of total plasma clearance, range of individual values",[1],6.53-31.8%
same,fraction unbound,[1],0.26
same,dose recovered unchanged in the urine,[1]; po,Approximately 110%
same,half-life,[1]; po,1500 to 1860 min
same,median time (tmax) to maximum observed concentration (Cmax),[1]; po,30 to 120 min
same,"second, generally lower peak, time postdose",[1]; po,3 to 4 h
same,"time to peak concentrations, range",[1]; po,0.5 to 4 h
same,AUC(0-inf),"[1]; po, 1 mg",330 ng·h/mL
same,AUC(0-t),"[1]; po, 1 mg",147 ng·h/mL
same,AUCextrapoloated,"[1]; po, 1 mg",1.66%
same,CL/F,"[1]; po, 1 mg",3270 mL/h
same,Cmax,"[1]; po, 1 mg",10.1 ng/mL
same,Tmax,"[1]; po, 1 mg",1 h
same,Vd/F,"[1]; po, 1 mg",122 L
same,half-life,"[1]; po, 1 mg",1640 min
same,AUC(0-inf),"[1]; po, 3 mg",1070 ng·h/mL
same,AUC(0-t),"[1]; po, 3 mg",491 ng·h/mL
same,AUCextrapoloated,"[1]; po, 3 mg",1.68%
same,CL/F,"[1]; po, 3 mg",2820 mL/h
same,Cmax,"[1]; po, 3 mg",31.9 ng/mL
same,Tmax,"[1]; po, 3 mg",2 h
same,Vd/F,"[1]; po, 3 mg",117 L
same,half-life,"[1]; po, 3 mg",1750 min
same,AUC(0-inf),"[1]; po, 10 mg",3630 ng·h/mL
same,AUC(0-t),"[1]; po, 10 mg",1600 ng·h/mL
same,AUCextrapoloated,"[1]; po, 10 mg",1.37%
same,CL/F,"[1]; po, 10 mg",2820 mL/h
same,Cmax,"[1]; po, 10 mg",125 ng/mL
same,Tmax,"[1]; po, 10 mg",0.5 h
same,Vd/F,"[1]; po, 10 mg",123 L
same,half-life,"[1]; po, 10 mg",1840 min
same,AUC(0-inf),"[1]; po, 30 mg",11000 ng·h/mL
same,AUC(0-t),"[1]; po, 30 mg",5260 ng·h/mL
same,AUCextrapoloated,"[1]; po, 30 mg",0.986%
same,CL/F,"[1]; po, 30 mg",2820 mL/h
same,Cmax,"[1]; po, 30 mg",386 ng/mL
same,Tmax,"[1]; po, 30 mg",0.75 h
same,half-life,"[1]; po, 30 mg",1760 min
same,AUC(0-inf),"[1]; po, 90 mg",32200 ng·h/mL
same,AUC(0-t),"[1]; po, 90 mg",18300 ng·h/mL
same,AUCextrapoloated,"[1]; po, 90 mg",0456%
same,CL/F,"[1]; po, 90 mg",2830 mL/h
same,Cmax,"[1]; po, 90 mg",1380 ng/mL
same,Tmax,"[1]; po, 90 mg",1.25 h
same,Vd/F,"[1]; po, 90 mg",102 L
same,half-life,"[1]; po, 90 mg",1520 min
same,AUC(0-inf),"[1]; po, 180 mg",65800 ng·h/mL
same,AUC(0-t),"[1]; po, 180 mg",33200 ng·h/mL
same,AUCextrapoloated,"[1]; po, 180 mg",0.789%
same,CL/F,"[1]; po, 180 mg",2900 mL/h
same,Cmax,"[1]; po, 180 mg",2490 ng/mL
same,Tmax,"[1]; po, 180 mg",1 h
same,Vd/F,"[1]; po, 180 mg",114 L
same,half-life,"[1]; po, 180 mg",1680 min
same,AUC(0-inf),"[1]; po, 360 mg",147000 ng·h/mL
same,AUC(0-t),"[1]; po, 360 mg",73200 ng·h/mL
same,AUCextrapoloated,"[1]; po, 360 mg",0719%
same,CL/F,"[1]; po, 360 mg",2480 mL/h
same,Cmax,"[1]; po, 360 mg",5750 ng/mL
same,Tmax,"[1]; po, 360 mg",0.5 h
same,half-life,"[1]; po, 360 mg",1670 min
same,maximum tolerated dose,[2],360 mg
same,"subjects experiencing a TEAE (mild diarrhea, related)",[3]; control group,1 (10.0%)
same,"subjects experiencing TEAEs (moderate tremor, severe metabolic encephalopathy, not related)",[3]; kidney failure group,1 (8.3%)
same,subjects experiencing a TEAE,[3]; moderate to severe renal impairment group,no subjects
same,subjects experiencing TEAEs,"[3]; overall, single 10 mg dose",2 (6.1%)
same,subjects experiencing an SAE,"[3]; overall, single 10 mg dose",1 (3.0%)
same,tolerability,"[3]; single 10 mg dose, varying degrees of renal function",well tolerated
